Source: patent US20010053771A1, “USE OF GLUCOSAMINE AND CLUCOSAMINE DERIVATIVES FOR QUICK ALLEVIATION OF ITCHING OR LOCALIZED PAIN” (priority 1997, published 2001)

What was measured:
Assay type in all cases: in vivo, human
[1] = test system: patient suffering from sore throat caused by β-hemolytic streptococci; assay: Spray treatment of a patient with sore throat (Example 1)
Method: Glucosamine or one or more of its derivatives was added in the appropriate amount to one of the following formulations. The compositions thus obtained were tested as described in the Examples. All percentages are by weight (w/w) unless otherwise indicated. A patient suffering from sore throat caused by β-hemolytic streptococci was treated with a water solution (formulation 1) of N-acetyl-glucosamine (8% w/w). The solution was sprayed into the mouth during 10 seconds in order to treat the infected area. Pain relief occurred already 20 seconds after application and lasted for at least 1,5 hour. 12 hours later the same patient was treated with spray containing glucosamine HCl (9% w/w and 20% glycerol and 10% alcohol in water). Pain relief occurred again very quickly, 36 seconds after, application and lasted for at least 2 hours.

[2] = test system: patient with a tendinitis due to the practice of bowling sport; assay: Topical treatment of tendinitis due to bowling (Example 6); details: 6% (w/w) in composition 3
Method: Glucosamine or one or more of its derivatives was added in the appropriate amount to one of the following formulations. The compositions thus obtained were tested as described in the Examples. All percentages are by weight (w/w) unless otherwise indicated.
A patient with a tendinitis due to the practice of bowling sport was treated 2 days after the onset of pain with composition 3 containing 6% (w/w) N-acetyl D-glucosamine. Pain relief occurred 25 seconds later.

[3] = test system: patient suffering from tendinitis caused by practicing tennis; assay: Topical cream treatment of tendinitis caused by tennis (Example 2); details: 5% (w/w) in formulation 2 cream, applied on the skin during 2 minutes; person
Method: Glucosamine or one or more of its derivatives was added in the appropriate amount to one of the following formulations. The compositions thus obtained were tested as described in the Examples. All percentages are by weight (w/w) unless otherwise indicated. A patient suffering from tendinitis caused by practicing tennis was treated with formulation 2 containing glucosamine sulphate 5% (w/w). The cream was normally applied on the skin during 2 minutes to allow the penetration. Pain relief occurred already after 50 seconds and lasted for at least 2 hours. After 12 hours the same patient was treated with formulation 2 without glucosamine. There was no pain relief after similar application.

[4] = test system: patient suffering from herpes simplex type I infection around the nose showing extensive fissures; assay: Topical treatment of herpes simplex type I lesions around the nose (Example 3); details: 3% (w/w) in formulation 3
Method: Glucosamine or one or more of its derivatives was added in the appropriate amount to one of the following formulations. The compositions thus obtained were tested as described in the Examples. All percentages are by weight (w/w) unless otherwise indicated. A patient suffering from herpes simplex type I infection around the nose showing extensive fissures was treated with formulation 3 containing 3% glucosamine sulfate (w/w). Already after 30 seconds pain and itching relief occurred and lasted during 3 hours.

[5] = test system: patient suffering from pain in the knee caused by a light collision; assay: Topical treatment of knee pain after a collision (Example 4); details: 10% (w/w) in formulation 3
Method: Glucosamine or one or more of its derivatives was added in the appropriate amount to one of the following formulations. The compositions thus obtained were tested as described in the Examples. All percentages are by weight (w/w) unless otherwise indicated. A patient suffering from pain in the knee caused by a light collision during a car accident was treated with formulation 3 containing 10% (w/w) glucosamine sulfate. Pain relief occurred after 50 seconds and lasted during 3 hours.

[6] = test system: child suffering from diaper allergy; assay: Topical treatment of diaper allergy (Example 5); details: 5% (w/w) in composition 2; applications for 1 week, 3 times a day; male, 8 months
Method: Glucosamine or one or more of its derivatives was added in the appropriate amount to one of the following formulations. The compositions thus obtained were tested as described in the Examples. All percentages are by weight (w/w) unless otherwise indicated. […]

[7] = test system: patient with allergy for cats; assay: Topical treatment of itching from cat allergy (Example 7); details: 5% (w/w) in composition 3
Method: Glucosamine or one or more of its derivatives was added in the appropriate amount to one of the following formulations. The compositions thus obtained were tested as described in the Examples. All percentages are by weight (w/w) unless otherwise indicated. A patient with allergy for cats (person) was confronted with a stroked cat (2 years old) in a closed room (6 m×4 m×3 m) during 10 minutes. 8 minutes later itching started all over the forehead and progressed after 15 minutes to the nose (external×internal). The patient was treated on the left side of the forehead with composition 3 and on the right side of the forehead with composition 3 containing 5% (w/w) glucosamine HCl. Itching completely disappeared after 45 seconds on the right side while there was still itching on the left side. The nose was also treated inside and outside with the active cream. Itching decreased drastically already after 50 seconds.

[8] = test system: patient suffering from arthritis urica; assay: Topical treatment of arthritis urica (Example 9); details: 9% (w/w) in composition 2; right foot, 4 successive treatments with an interval of 10 minutes; person
Method: Glucosamine or one or more of its derivatives was added in the appropriate amount to one of the following formulations. The compositions thus obtained were tested as described in the Examples. All percentages are by weight (w/w) unless otherwise indicated. A patient suffering from arthritis urica, and not taking any medication, was treated with composition 2 containing 9% (w/w) glucosamine HCl all over the affected right foot by 4 successive treatments with an interval of 10 minutes.

[9] = test system: patient suffering from eczema (atopical) on the arm-bends; assay: Topical treatment of atopical eczema (Example 10); details: 8% (w/w) in composition 3; left arm; person
Method: Glucosamine or one or more of its derivatives was added in the appropriate amount to one of the following formulations. The compositions thus obtained were tested as described in the Examples. All percentages are by weight (w/w) unless otherwise indicated. A patient suffering from eczema (atopical) (person) on the arm-bends was treated with composition 3 containing 8% (w/w) glucosamine HCl on the left arm and composition 3 on the right arm. Itching decreased drastically after 15 seconds and lasted during 2 hours only on the left arm. From the above it follows that the therapeutical compositions of the invention can be used to alleviate itching and pain which result from a variety of causes. The relief is obtained very quickly and lasts for a considerable period of time.

[10] = 8% w/w in water (formulation 1), sprayed into the mouth during 10 seconds, person
[11] = spray 9% w/w with 20% glycerol and 10% alcohol in water, same patient 12 hours later

`CC(=O)N[C@H]1C(O)O[C@H](CO)[C@@H](O)[C@@H]1O` (stereo partly drawn) [N-acetyl-glucosamine, N-acetyl D-glucosamine] was tested, and the “duration of pain relief” value [1, 10] was “at least 1,5 hour”, the “time to pain relief after application” value [1, 10] was 20 s and the “time to pain relief” value ([2]; 2 days after the onset of pain, person) was 25 s. The “pain after repeated treatment” value ([2]; after 5 successive treatments every 2 hours) was “pain was completely reduced”.

`N[C@H]1C(O)O[C@H](CO)[C@@H](O)[C@@H]1O.O=S(=O)(O)O` (stereo partly drawn) [glucosamine sulfate, D-glucosamine sulfate] was tested, and the “duration of pain relief” value [3] was “at least 2 hours”, the “time to pain relief” value [3] was 50 s and the closure of fissures ([4]; after 5 hours) was “most of the fissures were closed”. The “duration of pain and itching relief” value ([4]; person) was 3 h, the “time to pain and itching relief” value ([4]; person) was 30 s and the “pain after repeated treatment” value ([5]; after 3 new successive treatments every 4 hours) was “the pain was completely gone”. For the same compound, the “duration of pain relief” value ([5]; person) was 3 h and the “time to pain relief” value ([5]; person) was 50 s.

`Cl.N[C@H]1C(O)O[C@H](CO)[C@@H](O)[C@@H]1O` (stereo partly drawn) [glucosamine HCl, D-glucosamine hydrochloride] was tested, and the “duration of pain relief” value [1, 11] was “at least 2 hours”, the “time to pain relief after application” value [1, 11] was 36 s and the “relief of itching and pains” value [6] was “always immediate relief of itching and pains”. For the same compound, the “time until itching decreased drastically” value ([7]; nose treated inside and outside) was 50 s, the “time until itching completely disappeared” value ([7]; right side of the forehead, person) was 45 s and the “duration of pain relief” value [8] was 4 h. For the same compound, the pain relief [8] was “Gradually strong pain relief occurred”, the “duration of itching decrease” value [9] was 2 h and the “time until itching decreased drastically” value [9] was 15 s.
